Patent publication EP4650002A1 (Ludwig-Maximilians-Universität, priority 2024, dated 2025)

Biological target: T1, human TLX (Homo sapiens, UniProt Q9Y466)
T1 construct: expressed in transfected cells; host or cells: HEK293T
Assay: Gal4 hybrid reporter gene assay (TLX modulation)
Format: cell-based
Design: key to relative reporter activity: fraction of DMSO control (DMSO = 1)
Settings: for relative reporter activity: DMSO control = 1; for EC50: Gal4-TLX hybrid reporter in HEK293T cells, 16 h incubation
Method: In the Tables, the TLX relative reporter activity is expressed as EC50 (in µM) for each listed compound. "EC50" refers to a measure of the concentration of a compound which induces a biological response halfway between the baseline and maximum after a specified exposure time. […] The EC50 is measured via a hybrid reporter gene assay, employing the transfection of a reporter (firefly luciferase with Gal4 response element), a control gene (Renilla luciferase), a transcriptional activator (Gal4-VP16) and a hybrid receptor consisting of the TLX ligand binding domain (LBD) and the Gal4 DNA binding domain (DBD).
Hybrid reporter gene assays. […] After 24 h, medium was changed to Opti-MEM without supplements and cells were transiently transfected using Lipofectamine LTX reagent (Invitrogen, Carlsbad, CA, USA) according to the manufacturer's protocol. Five hours after transfection, cells were incubated with the test compounds in Opti-MEM supplemented with penicillin (100 U/mL), streptomycin (100 µg/mL) and 0.1% DMSO for 16 h before luciferase activity was measured using the Dual-Glo Luciferase Assay System (Promega) according to the manufacturer's protocol on a Tecan Spark luminometer (Tecan Deutschland GmbH, Crailsheim, Germany). Firefly luminescence was divided by Renilla luminescence and multiplied by 1000 resulting in relative light units (RLU) to normalize for transfection efficiency and cell growth. Fold activation was obtained by dividing the mean RLU of test compound by the mean RLU of the untreated control. All samples were tested in at least three biologically independent experiments in duplicates. For dose-response curve fitting and calculation of EC50 values, the equation "[Agonist] vs. response -- Variable slope (four parameters)" was used in GraphPad Prism (version 7.00, GraphPad Software, La Jolla, CA, USA).

[1] = minimal remaining or maximum reporter activity after treatment, in brackets below the EC50, <1 agonism, >1 inverse agonism

T1 sequence (Q9Y466 155-383 limits assumed): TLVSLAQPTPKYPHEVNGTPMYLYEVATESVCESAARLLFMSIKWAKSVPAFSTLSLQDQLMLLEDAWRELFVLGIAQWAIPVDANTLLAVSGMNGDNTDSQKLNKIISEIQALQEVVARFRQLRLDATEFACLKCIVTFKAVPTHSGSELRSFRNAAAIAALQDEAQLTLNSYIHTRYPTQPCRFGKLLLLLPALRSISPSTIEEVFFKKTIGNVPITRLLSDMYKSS

Row | SMILES | EC50 [µM] | relative reporter activity [1] | further results
1 | Cc1cn(-c2cccc(N)c2)cn1 [compound 101, 3-(4-methyl-1H-imidazol-1-yl)aniline] | – | – | relative reporter activity (at 30 µM): inactive at 30 µM
2 | Cc1cn(-c2cccc(NC(=O)Cc3ccccc3Cl)c2)cn1 [compound 103, 2-(2-chlorophenyl)-N-(3-(4-methyl-1H-imidazol-1-yl)phenyl)acetamide] | 1.9 ± 0.5 | 0.18±0.10 | –
3 | Cc1cc(-c2cccc(N)c2)ccn1 [compound 104, 3-(2-methylpyridin-4-yl)aniline] | – | – | relative reporter activity (at 50 µM): (0.73±0.06 at 50 µM)
4 | Cn1cc(-c2cccc(N)c2)cn1 [compound 105, 3-(1-methyl-1H-pyrazol-4-yl)aniline] | – | – | relative reporter activity (at 30 µM): inactive at 30 µM
5 | Cc1cc(N)cc(-c2ccnc(C)c2)c1 [compound 106, 3-methyl-5-(2-methylpyridin-4-yl)aniline] | – | – | relative reporter activity (at 30 µM): (0.44±0.09 at 30 µM)
6 | Cc1cc(-c2cc(N)ccc2C(F)(F)F)ccn1 [compound 107, 3-(2-methylpyridin-4-yl)-4-(trifluoromethyl)aniline] | – | – | relative reporter activity (at 50 µM): (0.39±0.04 at 50 µM)
7 | COc1cc(N)cc(-c2ccnc(C)c2)c1 [compound 108, 3-methoxy-5-(2-methylpyridin-4-yl)aniline] | 15 ± 4 | – | –
8 | Cc1cc(-c2cc(N)cc(C#N)c2)ccn1 [compound 109, 3-amino-5-(2-methylpyridin-4-yl)benzonitrile] | 5.9 ± 2.2 | 0.40±0.11 | –
9 | Cc1cc(-c2cc(N)ccc2OC(F)(F)F)ccn1 [compound 110, 3-(2-methylpyridin-4-yl)-4-(trifluoromethoxy)aniline] | 16 ± 10 | 0.34±0.09 | –
10 | Cc1cc(-c2cc(N)c3cc[nH]c3c2)ccn1 [compound 116, 6-(2-methylpyridin-4-yl)-1H-indol-4-amine] | – | – | relative reporter activity (at 50 µM): inactive at 50 µM
11 | Cc1cc(-c2cc(N)c3cn[nH]c3c2)ccn1 [compound 117] | 7.9 ± 1.5 | 0.31±0.03 | –

Continued, in another order:

Row | EC50 [µM] | relative reporter activity [1] | SMILES | further results
12 | 10 ± 7 | – | Cc1cc(-c2cc(N)cc(Cl)c2)ccn1 [compound 111, 3-chloro-5-(2-methylpyridin-4-yl)aniline] | –
13 | 18 ± 10 | 0.58±0.09 | CC(=O)c1ccc(-c2ccnc(C)c2)cc1N [compound 112, 1-(2-amino-4-(2-methylpyridin-4-yl)phenyl)ethan-1-one] | –
14 | 13.6 ± 0.6 | – | Cc1cc(-c2cc(N)cc(OC(F)(F)F)c2)ccn1 [compound 113, 3-(2-methylpyridin-4-yl)-5-(trifluoromethoxy)aniline] | –
15 | 9.6 ± 0.7 | – | Cc1cc(-c2cc(N)cc(Cl)c2Cl)ccn1 [compound 114, 3,4-dichloro-5-(2-methylpyridin-4-yl)aniline] | –
16 | 3.8 ± 0.7 | – | Cc1cc(-c2cc(N)cc3[nH]ccc23)ccn1 [compound 115, 4-(2-methylpyridin-4-yl)-1H-indol-6-amine] | –
